Test results taken from PubChem BioAssay AID248 (DTP/NCI, 2004).
“And” between values parts separate entries of the source, which are not always exact repeats. Equal entries are not always repeated. Toxic doses and inconclusive results are not listed. Rule as the data show it: active = T/C of 150% or more; inactive = T/C below 125%.

System: L1210 leukemia ip in BDF1 mice, survival T/C
Assay: NCI In Vivo Anticancer Drug Screen. Data for tumor model L1210 Leukemia (intraperitoneal) in B6D2F1 (BDF1) mice
Details: endpoint: mean survival time, higher = longer survival
How it was run: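 Survival endpoint. Drug-treated group vs vehicle group, expressed as T divided by C. Tumor passaged by transplantation.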

[1] = dose: 100.0 mg/kg/injection, schedule: Q01DX001 (ip), vehicle: Klucel (hydroxypropylcellulose) (HPC)
[2] = dose: 200.0 mg/kg/injection, schedule: Q01DX001 (ip), vehicle: Klucel (hydroxypropylcellulose) (HPC)
[3] = dose: 400.0 mg/kg/injection, schedule: Q01DX001 (ip), vehicle: Klucel (hydroxypropylcellulose) (HPC)
[4] = dose: 100.0 mg/kg/injection, schedule: Q04DX003 (ip), vehicle: Klucel (hydroxypropylcellulose) (HPC)
[5] = dose: 200.0 mg/kg/injection, schedule: Q04DX003 (ip), vehicle: Klucel (hydroxypropylcellulose) (HPC)
[6] = dose: 400.0 mg/kg/injection, schedule: Q04DX003 (ip), vehicle: Klucel (hydroxypropylcellulose) (HPC)
[7] = dose: 100.0 mg/kg/injection, schedule: Q04DX003 (sc), vehicle: steriod suspending solution
[8] = dose: 200.0 mg/kg/injection, schedule: Q04DX003 (sc), vehicle: steriod suspending solution
[9] = dose: 400.0 mg/kg/injection, schedule: Q04DX003 (sc), vehicle: steriod suspending solution
[10] = dose: 100.0 mg/kg/injection, schedule: Q01DX009 (ip), vehicle: Klucel (hydroxypropylcellulose) (HPC)
[11] = dose: 200.0 mg/kg/injection, schedule: Q01DX009 (ip), vehicle: Klucel (hydroxypropylcellulose) (HPC)
[12] = dose: 100.0 mg/kg/injection, schedule: Q04DX003 (ip), vehicle: saline with Tween-80
[13] = dose: 200.0 mg/kg/injection, schedule: Q04DX003 (ip), vehicle: saline with Tween-80
[14] = dose: 400.0 mg/kg/injection, schedule: Q04DX003 (ip), vehicle: saline with Tween-80

Measured: T/C

OC1CC23C=CC2(C1)C1(CC3)OCCO1 (centres undefined)
inactive: dose: 50.0 mg/kg/injection, schedule: Q04DX002 (ip), vehicle: saline with Tween-80 92 % of control | dose: 100.0 mg/kg/injection, schedule: Q04DX002 (ip), vehicle: saline with Tween-80 92 % of control | dose: 200.0 mg/kg/injection, schedule: Q04DX002 (ip), vehicle: saline with Tween-80 95 % of control | dose: 400.0 mg/kg/injection, schedule: Q04DX002 (ip), vehicle: saline with Tween-80 98 % of control

CC(=O)NC1CCC(C(F)(F)F)CC1 (centres undefined)
inactive: [1] 93 % of control and 96 % of control | [2] 95 % of control and 98 % of control | [3] 106 % of control and 98 % of control

CCCNC(=O)c1cc(NC(=O)Nc2ccc(C3=NCCN3)cc2)cc(NC(=O)Nc2ccc(C3=NCCN3)cc2)c1
inactive: dose: 2.5 mg/kg/injection, schedule: Q01DX Z (ip), vehicle: carboxymethylcellulose (CMC) 104 % of control | dose: 5.0 mg/kg/injection, schedule: Q01DX Z (ip), vehicle: carboxymethylcellulose (CMC) 112 % of control | dose: 20.0 mg/kg/injection, schedule: Q01DX Z (ip), vehicle: carboxymethylcellulose (CMC) 124 % of control | dose: 42.0 mg/kg/injection, schedule: Q01DX Z (ip), vehicle: carboxymethylcellulose (CMC) 115 % of control

COc1cccc(OC)c1OS(=O)(=O)c1ccc(COc2ccc([N+](=O)[O-])cc2Cl)cc1
inactive: [4] 98 % of control | [5] 90 % of control | [6] 90 % of control

C#CCCCCC#CCCCCCl
inactive: dose: 25.0 mg/kg/injection, schedule: Q01DX009 (ip), vehicle: acetone 104 % of control | dose: 50.0 mg/kg/injection, schedule: Q01DX009 (ip), vehicle: acetone 95 % of control | dose: 100.0 mg/kg/injection, schedule: Q01DX009 (ip), vehicle: acetone 87 % of control | dose: 100.0 mg/kg/injection, schedule: Q04DX003 (ip), vehicle: acetone 90 % of control | dose: 200.0 mg/kg/injection, schedule: Q04DX003 (ip), vehicle: acetone 93 % of control

COc1nc(N)c(C(N)=O)cc1C#N
inactive: dose: 87.0 mg/kg/injection, schedule: Q04DX003 (ip), vehicle: Klucel (hydroxypropylcellulose) (HPC) 97 % of control

COC(=O)/C=C(\C(=O)OC)c1c(-c2ccccc2)[nH]c2ccccc12
inactive: dose: 75.0 mg/kg/injection, schedule: Q01DX001 (ip), vehicle: carboxymethylcellulose (CMC) 92 % of control | dose: 150.0 mg/kg/injection, schedule: Q01DX001 (ip), vehicle: carboxymethylcellulose (CMC) 89 % of control | dose: 300.0 mg/kg/injection, schedule: Q01DX001 (ip), vehicle: carboxymethylcellulose (CMC) 94 % of control

[CH3][Sn]([CH3])([Cl])[CH2]Cl
inactive: dose: 0.39 mg/kg/injection, schedule: Q01DX009 (ip), vehicle: saline 112 % of control | dose: 0.78 mg/kg/injection, schedule: Q01DX009 (ip), vehicle: saline 119 % of control | dose: 1.56 mg/kg/injection, schedule: Q01DX009 (ip), vehicle: saline 97 % of control and 91 % of control | dose: 3.12 mg/kg/injection, schedule: Q01DX009 (ip), vehicle: saline 87 % of control

CC(=O)OC1CCC2(C)C(CCC3C2CCC2(C)C(C(C)CCO)CCC32)C1 (centres undefined)
inactive: [7] 95 % of control | [8] 104 % of control | [9] 100 % of control

O/N=C/c1ccc(Cl)cc1Cl
inactive: dose: 50.0 mg/kg/injection, schedule: Q04DX003 (ip), vehicle: Klucel (hydroxypropylcellulose) (HPC) 97 % of control | [1] 94 % of control | [4] 95 % of control | [2] 97 % of control | [5] 97 % of control | [3] 102 % of control

O=[N+]([O-])c1cccc(/C=C\C=C\c2ccccc2)c1
inactive: dose: 50.0 mg/kg/injection, schedule: Q01DX001 (ip), vehicle: saline 100 % of control | dose: 100.0 mg/kg/injection, schedule: Q01DX001 (ip), vehicle: saline 103 % of control | dose: 200.0 mg/kg/injection, schedule: Q01DX001 (ip), vehicle: saline 103 % of control | dose: 400.0 mg/kg/injection, schedule: Q01DX001 (ip), vehicle: saline 94 % of control

CS(=O)(=O)OCCCCCCCCCOS(C)(=O)=O
inactive: dose: 25.0 mg/kg/injection, schedule: Q01DX009 (ip), vehicle: Klucel (hydroxypropylcellulose) (HPC) 96 % of control | dose: 50.0 mg/kg/injection, schedule: Q01DX009 (ip), vehicle: Klucel (hydroxypropylcellulose) (HPC) 103 % of control | dose: 75.0 mg/kg/injection, schedule: Q01DX001 (ip), vehicle: other 95 % of control | [10] 105 % of control | dose: 150.0 mg/kg/injection, schedule: Q01DX001 (ip), vehicle: other 108 % of control

CC(C)c1ccc(/C=N/NC(=S)Nc2ccccc2)cc1
inactive: [10] 93 % of control | [11] 93 % of control | dose: 400.0 mg/kg/injection, schedule: Q01DX009 (ip), vehicle: Klucel (hydroxypropylcellulose) (HPC) 90 % of control

COC(=O)c1nc[nH]c1C(=O)OC
inactive: dose: 100.0 mg/kg/injection, schedule: Q04DX003 (ip), vehicle: saline 112 % of control | dose: 200.0 mg/kg/injection, schedule: Q04DX003 (ip), vehicle: saline 93 % of control | dose: 400.0 mg/kg/injection, schedule: Q04DX003 (ip), vehicle: saline 109 % of control

O=C(CC(O)(C(F)(F)F)C(F)(F)F)c1ccccc1Cl
inactive: [12] 97 % of control | [13] 101 % of control | [14] 101 % of control

CC(C)C(=O)CCC1CCCCC1
inactive: dose: 100.0 mg/kg/injection, schedule: Q01DX001 (ip), vehicle: saline with Tween-80 100 % of control | dose: 200.0 mg/kg/injection, schedule: Q01DX001 (ip), vehicle: saline with Tween-80 100 % of control | dose: 400.0 mg/kg/injection, schedule: Q01DX001 (ip), vehicle: saline with Tween-80 97 % of control

CC(=O)OCC(=O)[C@@]1(O)CC[C@H]2[C@@H]3C[C@@H](C)C4=CC(=O)C=C[C@]4(C)[C@H]3[C@@H](O)C[C@@]21C
inactive: dose: 75.0 mg/kg/injection, schedule: Q01DX009 (sc), vehicle: steriod suspending solution 92 % of control | dose: 100.0 mg/kg/injection, schedule: Q04DX003 (ip), vehicle: steriod suspending solution 97 % of control | [7] 100 % of control | dose: 150.0 mg/kg/injection, schedule: Q01DX009 (sc), vehicle: steriod suspending solution 92 % of control | dose: 200.0 mg/kg/injection, schedule: Q04DX003 (ip), vehicle: steriod suspending solution 91 % of control | [8] 102 % of control | dose: 300.0 mg/kg/injection, schedule: Q01DX009 (sc), vehicle: steriod suspending solution 92 % of control | dose: 400.0 mg/kg/injection, schedule: Q04DX003 (ip), vehicle: steriod suspending solution 94 % of control | [9] 103 % of control

CN(C)C(=S)SCN1CCCCC1
inactive: [10] 103 % of control | [4] 96 % of control | [11] 97 % of control | [5] 104 % of control | [6] 107 % of control

CN(C)C(=S)Oc1ccccc1[N+](=O)[O-]
inactive: [12] 100 % of control | [13] 103 % of control | [14] 114 % of control

CCn1c(C)nc2cc(N=Cc3ccc(N(CCCl)CCCl)cc3C)ccc21
inactive: dose: 87.5 mg/kg/injection, schedule: Q04DX002 (ip), vehicle: Klucel (hydroxypropylcellulose) (HPC) 102 % of control | dose: 100.0 mg/kg/injection, schedule: Q04DX002 (ip), vehicle: Klucel (hydroxypropylcellulose) (HPC) 95 % of control | dose: 175.0 mg/kg/injection, schedule: Q04DX002 (ip), vehicle: Klucel (hydroxypropylcellulose) (HPC) 102 % of control | dose: 200.0 mg/kg/injection, schedule: Q04DX002 (ip), vehicle: Klucel (hydroxypropylcellulose) (HPC) 102 % of control | dose: 350.0 mg/kg/injection, schedule: Q04DX002 (ip), vehicle: Klucel (hydroxypropylcellulose) (HPC) 98 % of control | dose: 400.0 mg/kg/injection, schedule: Q04DX002 (ip), vehicle: Klucel (hydroxypropylcellulose) (HPC) 102 % of control

CCC1(O)CC(OC2CC(N(C)C)C(OC3CC(O)C(OC4CC(O)C(O)C(C)O4)C(C)O3)C(C)O2)c2c(cc3c(c2O)C(=O)c2c(O)ccc(O)c2C3=O)C1C(=O)OC (centres undefined)
inactive: dose: 1.6 mg/kg/injection, schedule: Q01DX001 (ip), vehicle: saline 98 % of control | dose: 3.2 mg/kg/injection, schedule: Q01DX001 (ip), vehicle: saline 117 % of control | dose: 6.4 mg/kg/injection, schedule: Q01DX001 (ip), vehicle: saline 108 % of control | dose: 12.8 mg/kg/injection, schedule: Q01DX001 (ip), vehicle: saline 124 % of control
